# Assay results from patent publication US7947706B2, “Substituted pyrrolopyridines, compositions containing them, manufacturing process therefor and use thereof” (Sanofi-Aventis Deutschland GmbH, priority 2005, dated 2011).
# pIC50: −log10 of the molar value.
# Experiments:
# Type in all cases: biochemical
# FAK = biological target: T1, FAK (Homo sapiens, UniProt Q05397); test: FAK autophosphorylation inhibition, time-resolved fluorescence test (HTRF); settings: autophosphorylation of His-tagged human FAK, 15 μM ATP, 1 hour at 37° C.
# T1 construct: The whole cDNA of human FAK; made in house; host or cells: baculovirus expression (pFastBac HTc)
# Procedure: The inhibitory activity of the compounds on FAK is determined by measuring the inhibition of autophosphorylation of the enzyme using a time-resolved fluorescence test (HTRF).
# The whole cDNA of human FAK, the N-terminal end of which has been labelled with histidine, was cloned in a pFastBac HTc baculovirus expression vector. The protein was expressed and purified to about 70% homogeneity.
# The kinase activity is determined by incubating the enzyme (6.6 μg/ml) with different concentrations of test compound in a 50 mM Hepes pH=7.2, 10 mM MgCl2, 100 μm Na3VO4, 15 μM ATP buffer for 1 hour at 37° C. The enzymatic reaction is stopped by adding Hepes pH=7.0 buffer containing 0.4 mM KF, 133 mM EDTA, 0.1% BSA and the labelling is performed, for 1 to 2 hours at room temperature, by adding to this buffer an anti-Histidine antibody labelled with XL665 and a tyrosine phosphospecific monoclonal antibody conjugated to europium cryptate (Eu—K). The characteristics of the two fluorophores are available in G. Mathis et al., Anticancer Research, 1997, 17, pages 3011-3014. The energy transfer from the excited europium cryptate to the acceptor XL665 is proportional to the degree of autophosphorylation of FAK. The long-lasting signal specific for XL-665 is measured in a Packard Discovery plate counter. All the tests are performed in duplicate and the average of the two tests is calculated. The inhibition of the autophosphorylation activity of FAK with compounds of the invention is expressed as a percentage of inhibition relative to a control whose activity is measured in the absence of test compound. To calculate the percentage inhibition, the ratio [signal at 665 nm/signal at 620 nm] is considered.
# KDR = biological target: T2, KDR (Homo sapiens, UniProt P35968); test: KDR substrate phosphorylation test, scintillation technique; settings: GST-KDR cytoplasmic domain, PLCγ SH2-SH3 substrate, 33P-ATP, 1 hour at 37° C.
# T2 construct: The cytoplasmic domain of the human KDR enzyme; GST; made in house; host or cells: SF21 insect cells (baculovirus, pFastBac)
# Procedure: The inhibitory effect of the compounds is determined in an in vitro test of phosphorylation of substrate with the enzyme KDR via a scintillation technique (96-well plate, NEN).
# The cytoplasmic domain of the human KDR enzyme was cloned in the form of a GST fusion in the pFastBac baculovirus expression vector. The protein was expressed in the SF21 cells and purified to about 60% homogeneity.
# The KDR kinase activity is measured in 20 mM MOPS, 10 mM MgCl2, 10 mM MnCl2, 1 mM DTT, 2.5 mM EGTA, 10 mM b-glycerophosphate, pH=7.2, in the presence of 10 mM MgCl2, 100 μm Na3VO4, 1 mM NaF. 10 μl of the compound are added to 70 μl of kinase buffer containing 100 ng of KDR enzyme at 4° C. The reaction is initiated by adding 20 μl of solution containing 2 μg of substrate (SH2-SH3 fragment of PLCγ expressed in the form of a GST fusion protein), 2 μCi of γ^33P[ATP] and 2 μm of cold ATP. After incubation for 1 hour at 37° C., the reaction is stopped by adding 1 volume (100 μl) of 200 mM EDTA. The incubation buffer is removed, and the wells are washed three times with 300 μl of PBS. The radioactivity in each well is measured using a Top Count NXT radioactivity counter (Packard).
# The background noise is determined by measuring the radioactivity in four different wells containing radioactive ATP and the substrate alone.
# A total activity control is measured in four different wells containing all the reagents (γ^33P-[ATP], KDR and substrate PLCγ), but in the absence of compound.
# The inhibition of the KDR activity with the compound of the invention is expressed as a percentage of inhibition of the control activity determined in the absence of compound.
# Compound SU5614 (Calbiochem) (1 μM) is included in each plate as an inhibition control.
# Aurora B = biological target: T3, Aurora B (Homo sapiens, UniProt Q96GD4); test: Aurora1 (Aurora-B/INCENP-C3 complex) enzymatic test, NuMA substrate phosphorylation, radioactivity detection; settings: 10 nM Aurora1 (Aurora-B/INCENP-C3), 500 nM NuMA, 1 μM ATP, 30 minutes, 37° C.; read-out: IC 50 Aurora B
# T3 construct: His (N); made in house
# Procedure: The inhibitory effect of compounds with respect to the kinases Aurora1 and Aurora2 is determined by means of an enzymatic test using radioactivity detection.
# The kinase activity of Aurora1 and Aurora2 is evaluated via the phosphorylation of the substrate Numa-histidine in the presence of radiolabelled ATP ([^33P]ATP) using 96-well Flashplate plates in which the nickel chelate is bound to the surface of the microplate. The amount of ^33P phosphate incorporated into the NuMA substrate is proportional to the activity of the enzyme Aurora1 or Aurora2.
# Aurora1: Aurora-B/INCENP-C3 recombinant complex, purified to about 50%, the N-terminal end of Aurora-B of which has been labelled with histidine.
# NuMA (nuclear protein that combines with the mitotic apparatus): 424-amino acid fragment, expressed in E. coli, the N-terminal end of which has been labelled with histidine, and used as substrate for the two Aurora enzymes.
# The microplates used are 96-well Flash-Plate plates, nickel chelate (Perkin-Elmer, model SMP107).
# The products to be evaluated are incubated in a reaction volume of 100 μL per well, in the presence of 10 nM of Aurora1 or Aurora2, 500 nM of NuMA substrate in a buffer composed of 50 mM Tris/HCl (pH 7.5), 50 mM NaCl, 5 mM MgCl2 (Aurora-B) or 10 mM MgCl2 (Aurora-A) and 1 mM DTT, at 37° C.
# 80 μL of enzyme/substrate incubation buffer are distributed in each well, followed by 10 μL of product to be evaluated, at variable concentrations. The reaction is initiated by adding 1 μM final of ATP containing 0.2 μCi of [^33P]ATP (10 μL). After incubating for 30 minutes, the reaction is quenched by simple removal of the reaction buffer and each well is washed twice with 300 μl of Tris/HCl buffer. The radioactivity is then measured in each well using a Packard, Top-Count model scintillation machine.
# The control enzymatic activity of Aurora is expressed by the number of counts per minute obtained over 30 minutes after subtracting the background noise (reaction mixture containing no enzyme). The evaluation of the various test products is expressed as a percentage of inhibition of the Aurora activity relative to the control.
# T3 sequence (Q96GD4 whole entry): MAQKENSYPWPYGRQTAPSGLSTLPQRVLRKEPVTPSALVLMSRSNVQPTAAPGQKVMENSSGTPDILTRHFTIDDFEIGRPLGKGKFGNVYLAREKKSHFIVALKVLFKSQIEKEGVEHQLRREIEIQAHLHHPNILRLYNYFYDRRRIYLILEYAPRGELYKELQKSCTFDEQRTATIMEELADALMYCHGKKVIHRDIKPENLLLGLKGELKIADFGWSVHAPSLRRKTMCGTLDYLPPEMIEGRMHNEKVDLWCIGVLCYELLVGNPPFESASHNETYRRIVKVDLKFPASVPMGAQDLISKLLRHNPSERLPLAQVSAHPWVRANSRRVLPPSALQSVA
# T3 sequence (Q9NQS7 826-900 partner limits assumed): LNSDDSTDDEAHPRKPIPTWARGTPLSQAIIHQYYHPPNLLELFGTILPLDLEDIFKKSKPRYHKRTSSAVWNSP
# T2 sequence (P35968 786-1356 limits assumed): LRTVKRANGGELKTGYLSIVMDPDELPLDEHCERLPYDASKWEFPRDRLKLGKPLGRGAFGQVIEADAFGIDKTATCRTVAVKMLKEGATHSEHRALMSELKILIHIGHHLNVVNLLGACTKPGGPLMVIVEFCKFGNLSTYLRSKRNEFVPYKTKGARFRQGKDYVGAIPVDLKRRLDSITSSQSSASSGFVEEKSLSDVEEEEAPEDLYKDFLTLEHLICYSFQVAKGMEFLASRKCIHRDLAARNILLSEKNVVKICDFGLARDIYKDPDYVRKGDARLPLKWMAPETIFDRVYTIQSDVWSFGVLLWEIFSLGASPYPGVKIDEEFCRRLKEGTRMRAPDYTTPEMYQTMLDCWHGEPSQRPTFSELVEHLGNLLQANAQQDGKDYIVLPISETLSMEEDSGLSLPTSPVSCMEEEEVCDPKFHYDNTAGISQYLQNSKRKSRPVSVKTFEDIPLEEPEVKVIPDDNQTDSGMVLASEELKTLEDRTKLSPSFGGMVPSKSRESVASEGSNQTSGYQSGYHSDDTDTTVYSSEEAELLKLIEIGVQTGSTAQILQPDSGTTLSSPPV
# T1 sequence (Q05397 whole entry): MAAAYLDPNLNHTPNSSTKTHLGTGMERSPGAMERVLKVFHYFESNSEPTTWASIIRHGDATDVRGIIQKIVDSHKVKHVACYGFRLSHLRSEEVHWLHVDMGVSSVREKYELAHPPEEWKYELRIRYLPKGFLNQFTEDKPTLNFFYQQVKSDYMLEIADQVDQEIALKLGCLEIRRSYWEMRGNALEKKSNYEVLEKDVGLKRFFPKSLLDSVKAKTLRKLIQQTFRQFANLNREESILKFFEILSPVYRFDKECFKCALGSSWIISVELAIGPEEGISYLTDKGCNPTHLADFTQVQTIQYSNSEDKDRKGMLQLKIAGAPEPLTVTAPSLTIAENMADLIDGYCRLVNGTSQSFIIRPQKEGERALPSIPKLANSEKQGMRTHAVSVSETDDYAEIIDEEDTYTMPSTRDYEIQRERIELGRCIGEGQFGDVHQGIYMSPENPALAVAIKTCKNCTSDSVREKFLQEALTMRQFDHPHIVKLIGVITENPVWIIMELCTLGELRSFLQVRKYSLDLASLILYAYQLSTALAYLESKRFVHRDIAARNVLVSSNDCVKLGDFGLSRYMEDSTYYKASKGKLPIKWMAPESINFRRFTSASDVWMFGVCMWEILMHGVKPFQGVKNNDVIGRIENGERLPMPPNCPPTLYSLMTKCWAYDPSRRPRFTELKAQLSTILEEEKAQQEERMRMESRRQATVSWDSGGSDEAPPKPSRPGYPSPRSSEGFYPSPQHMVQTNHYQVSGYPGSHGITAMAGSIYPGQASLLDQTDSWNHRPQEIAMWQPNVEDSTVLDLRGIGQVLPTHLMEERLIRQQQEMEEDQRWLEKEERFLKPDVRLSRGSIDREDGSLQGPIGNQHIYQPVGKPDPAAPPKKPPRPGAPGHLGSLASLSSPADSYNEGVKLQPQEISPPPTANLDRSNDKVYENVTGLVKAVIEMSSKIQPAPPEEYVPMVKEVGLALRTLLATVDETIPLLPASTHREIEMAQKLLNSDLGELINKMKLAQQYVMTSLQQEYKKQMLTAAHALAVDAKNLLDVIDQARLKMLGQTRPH
pIC50 (FAK),pIC50 (KDR),pIC50 (Aurora B),Compound
6.79,7.54,6.86,"NC(=O)c1[nH]c2cnccc2c1-c1ccc(NC(=O)Nc2cc(C(F)(F)F)ccc2F)cc1 [Example 1, 3-{4-[3-(2-Fluoro-5-trifluoromethylphenyl)ureido]phenyl}-1H-pyrrolo[2,3-c]pyridine-2-carboxamide]"
6.52,6.82,6.71,"COc1ccc(C)cc1NC(=O)Nc1ccc(-c2c(C(N)=O)[nH]c3cnccc23)cc1 [Example 2, 3-{4-[3-(2-Methoxy-5-methylphenyl)ureido]phenyl}-1H-pyrrolo[2,3-c]pyridine-2-carboxamide]"
6.60,6.59,7.17,"Cc1ccc(F)c(NC(=O)Nc2ccc(-c3c(C(N)=O)[nH]c4cnccc34)cc2)c1.O=C(O)C(F)(F)F [Example 5, 3-{4-[3-(2-Fluoro-5-methylphenyl)ureido]phenyl}-1H-pyrrolo[2,3-c]pyridine-2-carboxamide trifluoroacetate]"
6.74,7.47,6.88,"NC(=O)c1[nH]c2ncccc2c1-c1ccc(NC(=O)Nc2cc(C(F)(F)F)ccc2F)cc1 [Example 7, 3-{4-[3-(2-Fluoro-5-trifluoromethylphenyl)ureido]phenyl}-1H-pyrrolo[2,3-b]pyridine-2-carboxamide]"
